Test results reported in patent US6156700A, “3-(1,2-Benzisothiazol- and isoxazol-5-yl)-2,4(1H,3H)-pyrimidinedione or thione and 3-(1,2-benzisothiazol- and isoxazol-5-yl)-4(3H)-pyrimidinone or thione herbicidal agents” (American Cyanmid Company, priority 1998, dated 2000).

How the values were obtained:
Details in all cases: 0.0630 kg/ha
[1] = system: Velvetleaf, Abutilon theophrasti; assay: Postemergence herbicidal evaluation, ABUTH; type: in vivo, Medic.
Protocol: (§1) In the tests, seedling plants are grown in jiffy flats for about two weeks. The test compounds are dispersed in 50/50 acetone/water mixtures containing 0.5% TWEEN®20, a polyoxyethylene sorbitan monolaurate surfactant of Atlas Chemical Industries, in sufficient quantities to provide the equivalent of about 0.0157 kg to 0.500 kg per hectare of active compound when applied to the plants through a spray nozzle operating at 40 psi for a predetermined time. After spraying, the plants are placed on greenhouse benches and are cared for in accordance with conventional greenhouse procedures. From four to five weeks after treatment, the seedling plants are examined and rated according to the rating system set forth below. Where more than one test is involved for a given compound, the data are averaged.
(§2) Results of herbicide evaluation are expressed on a rating scale (0-9). The scale is based upon a visual observation of plant stand, vigor, malformation, size, chlorosis and overall plant appearance as compared with a control.

[2] = system: Ragweed, Common, Ambrosia artemisifolia; assay: Postemergence herbicidal evaluation, AMBEL; type: in vivo, L.
Protocol: as §1, §2

[3] = system: Sicklepod, Cassia obtusifolia; assay: Postemergence herbicidal evaluation, CASOB; type: in vivo, L.
Protocol: as §1, §2

[4] = system: Lambsquarters, Common, Chenopodium album; assay: Postemergence herbicidal evaluation, CHEAL; type: in vivo, L.
Protocol: as §1, §2

Galium, Galium aparine = assay: Postemergence herbicidal evaluation, GALAP; type: in vivo
Protocol: as §1, §2

[5] = system: Morningglory, Ivyleaf, Ipomoea hederacea; assay: Postemergence herbicidal evaluation, IPOHE; type: in vivo, (L.) Jacq.
Protocol: as §1, §2

[6] = system: Barnyardgrass, Echinochloa crus-galli; assay: Postemergence herbicidal evaluation, ECHCG; type: in vivo, (L.) Beau
Protocol: as §1, §2

[7] = system: Foxtail, Green, Setaria viridis; assay: Postemergence herbicidal evaluation, SETVI; type: in vivo, (L.) Beau
Protocol: as §1, §2

[8] = system: Soybean, Williams, Glycine max; assay: Postemergence herbicidal evaluation, GLXMAW; type: in vivo, (L.) Merr. cv Williams
Protocol: as §1, §2

[9] = system: Rice, Tebonnet, Oryza sativa; assay: Postemergence herbicidal evaluation, ORYSAT; type: in vivo, (L.) Tebonnet
Protocol: as §1, §2

[10] = system: Wheat, Winter, cv Riband, Triticum aestivum; assay: Postemergence herbicidal evaluation, TRZAWR; type: in vivo
Protocol: as §1, §2

Corn, Field, Zea mays = assay: Postemergence herbicidal evaluation, ZEAMX; type: in vivo, L.
Protocol: as §1, §2

| SMILES | herbicide rating (0-9) [1] | herbicide rating (0-9) [2] | herbicide rating (0-9) [3] | herbicide rating (0-9) [4] | herbicide rating (0-9) (Galium, Galium aparine) | herbicide rating (0-9) [5] | herbicide rating (0-9) [6] | herbicide rating (0-9) [7] | herbicide rating (0-9) [8] | herbicide rating (0-9) [9] | herbicide rating (0-9) [10] | herbicide rating (0-9) (Corn, Field, Zea mays) |
| --- | --- | --- | --- | --- | --- | --- | --- | --- | --- | --- | --- | --- |
| C=CCOC(=O)COc1ccc(C)cc1-c1nsc2ccc(-n3c(=O)cc(C(F)(F)F)n(C)c3=O)cc12 [Compound 69, Allyl {{2-{5-[3,6-dihydro-3-methyl-2,6-dioxo-4-(trifluoromethyl)-1(2H)-pyrimidinyl]-1,2-benzisothiazol-3-yl}-p-tolyl}oxy}acetate] | 9.0 | 9.0 | 9.0 | 9.0 | 9.0 | 9.0 | 9.0 | 9.0 | 9.0 | 8.0 | 8.0 | 8.5 |
| Cc1ccc(OCC(=O)OCC#Cc2ccccc2)c(-c2nsc3ccc(-n4c(=O)cc(C(F)(F)F)n(C)c4=O)cc23)c1 [Compound 73] | 9.0 | 9.0 | 9.0 | 9.0 | 9.0 | 9.0 | 9.0 | 9.0 | 9.0 | 5.5 | 4.5 | 6.0 |
| Cc1ccc(OCC(=O)OCCCl)c(-c2nsc3ccc(-n4c(=O)cc(C(F)(F)F)n(C)c4=O)cc23)c1 [Compound 71, 2-Chloroethyl {{2-{5-[3,6-dihydro-3-methyl-2,6-dioxo-4-(trifluoromethyl)-1(2H)-pyrimidinyl]-1,2-benzisothiazol-3-yl}-p-tolyl}oxy}acetate] | 9.0 | 9.0 | 9.0 | 9.0 | 9.0 | 9.0 | 9.0 | 9.0 | 9.0 | 8.0 | 9.0 | 8.5 |
| CC#CCOC(=O)COc1ccc(C)cc1-c1nsc2ccc(-n3c(=O)cc(C(F)(F)F)n(C)c3=O)cc12 [Compound 75] | 9.0 | 9.0 | 7.0 | 9.0 | 7.0 | 9.0 | 9.0 | 9.0 | 9.0 | 6.5 | 9.0 | 7.5 |
| Cc1ccc(OC(C)C(=O)OCc2ccco2)c(-c2nsc3ccc(-n4c(=O)cc(C(F)(F)F)n(C)c4=O)cc23)c1 (stereo not drawn) [Compound 79, Furfuryl 2-{{2-{5-[3,6-dihydro-3-methyl-2,6-dioxo-4-(trifluoromethyl)-1(2H)-pyrimidinyl]-1,2-benzisothiazol-3-yl}-p-tolyl}oxy}propionate] | 9.0 | 9.0 | 7.0 | 9.0 | 9.0 | 9.0 | 9.0 | 9.0 | 7.5 | 7.5 | 8.5 | 7.5 |
| Cc1ccc(OC(C)C(=O)OCCCl)c(-c2nsc3ccc(-n4c(=O)cc(C(F)(F)F)n(C)c4=O)cc23)c1 (stereo not drawn) [Compound 81, 2-Chloroethyl 2-{{2-{5-[3,6-dihydro-3-methyl-2,6-dioxo-4-(trifluoromethyl)-1(2H)-pyrimidinyl]-1,2-benzisothiazol-3-yl}-p-tolyl}oxy}propionate] | 9.0 | 9.0 | 3.0 | 9.0 | 9.0 | 9.0 | 9.0 | 9.0 | 7.0 | 8.0 | 8.5 | 8.0 |
| C#CC(C)OC(=O)COc1ccc(C)cc1-c1nsc2ccc(-n3c(=O)cc(C(F)(F)F)n(C)c3=O)cc12 (stereo not drawn) [Compound 74, 1-Methyl-2-propynyl {{2-{5-[3,6-dihydro-3-methyl-2,6-dioxo-4-(trifluoromethyl)-1(2H)-pyrimidinyl]-1,2-benzisothiazol-3-yl}-p-tolyl}oxy}acetate] | 9.0 | 9.0 | 9.0 | 9.0 | 9.0 | 9.0 | 9.0 | 9.0 | 9.0 | 7.0 | 7.5 | 8.5 |
| Cc1ccc(OC(C)C(=O)OC(C)C)c(-c2nsc3ccc(-n4c(=O)cc(C(F)(F)F)n(C)c4=O)cc23)c1 (stereo not drawn) [Compound 82, Isopropyl 2-{{2-{5-[3,6-dihydro-3-methyl-2,6-dioxo-4-(trifluoromethyl)-1(2H)-pyrimidinyl)-1,2-benzisothiazol-3-yl}-p-tolyl}oxy}propionate] | 9.0 | 6.0 | 1.0 | 9.0 | 4.0 | 9.0 | 7.0 | 9.0 | 5.5 | 5.5 | 6.0 | 5.5 |
